Measurements taken from patent publication US20250154686A1, “COMPOUND LIBRARY” (CHUGAI SEIYAKU KABUSHIKI KAISHA, priority 2021, published 2025).

Biological target: T1, Bcl-2 protein (Recombinant Human Bcl-2 Protein) (Homo sapiens, UniProt P10415)
T1 construct: purchased Novus Biologicals NBP2-34889
Experiment: AS-MS evaluation of binding of the Example 4 mixture library (1200 compounds/well) to Bcl-2, ASMS ratio (%)
In short: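 Affinity-selection MS: 1200 cpds/well, 20 nM each; hBcl-2 20 μM; 25 mM Tris pH 7.4/150 mM NaCl/0.025% Tween-20/1 mM DTT; 1 h, 23 °C, dark; P-2 size-exclusion spin, MeCN:MeOH 1:1 extraction; RP LC/MS; ratio vs no-protein STD and SEC blank.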

[1] = AS-MS, Example 4 mixture library, Bcl-2, replicate n = 1
[2] = AS-MS, Example 4 mixture library, Bcl-2, replicate n = 2
[3] = replicate n = 2, mixture library, value belongs to the MS peak assigned to the compound
[4] = replicate n = 1, mixture library, value belongs to the MS peak assigned to the compound

T1 sequence (P10415 whole entry): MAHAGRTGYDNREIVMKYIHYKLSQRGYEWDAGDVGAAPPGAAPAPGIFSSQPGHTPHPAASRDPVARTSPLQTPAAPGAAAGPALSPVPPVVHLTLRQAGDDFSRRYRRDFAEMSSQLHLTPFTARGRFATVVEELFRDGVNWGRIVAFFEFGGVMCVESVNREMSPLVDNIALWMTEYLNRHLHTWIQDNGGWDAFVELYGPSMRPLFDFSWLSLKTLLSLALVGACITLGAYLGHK

SMILES	ASMS ratio (%) n = 1 [1]	ASMS ratio (%) n = 2 [2]	ASMS ratio (%) n = 2 [3]	ASMS ratio (%) n = 1 [4]	further results
CCOc1cncc(-c2ccccc2CN2CCN(c3ccc(C(=O)NS(=O)(=O)c4ccc(NCCSc5ccccc5)c(C(F)(F)F)c4)cc3)CC2)c1 [Compound B2R046-01, 4-[4-[[2-(5-ethoxypyridin-3-yl)phenyl]methyl]piperazin-1-yl]-N-[4-(2-phenylsulfanylethylamino)-3-(trifluoromethyl)phenyl]sulfonylbenzamide]	−0.2%	0.0%	–	–	–
CCOc1cncc(-c2cc(OC)c(CN3CCN(c4ccc(C(=O)N(CC)CC)cc4)CC3)c(OC)c2)c1 [Compound B4J060-01, 4-[4-[[4-(5-Ethoxypyridin-3-yl)-2,6-dimethoxyphenyl]methyl]piperazin-1-yl]-N,N-diethylbenzamide]	–	–	–	–	ASMS ratio (%) n = 1 (Example 4 mixture library, 1200 compounds/well, Bcl-2 protein, replicate n = 1, value belongs to the MS peak assignable to the compound): 0.0%; ASMS ratio (%) n = 2 (Example 4 mixture library, 1200 compounds/well, Bcl-2 protein, replicate n = 2, value belongs to the MS peak assignable to the compound): 0.0%
CCOc1cccc(-c2ccc(CN3CCN(c4ccc(C(=O)NS(=O)(=O)C(C)(C)C)cc4)CC3)c(CC)c2)c1 [Compound B2L049-01, N-tert-Butylsulfonyl-4-[4-[[4-(3-ethoxyphenyl)-2-ethylphenyl]methyl]piperazin-1-yl]benzamide]	–	–	0.0%	–	–
CCOc1cncc(-c2cc(CN3CCN(c4ccc(C(=O)NS(C)(=O)=O)cc4)CC3)cc(OCC)c2)c1 [Compound B2I056-01, 4-[4-[[3-Ethoxy-5-(5-ethoxypyridin-3-yl)phenyl]methyl]piperazin-1-yl]-N-methylsulfonylbenzamide]	–	–	0.0%	0.0%	–
CCOc1cncc(C#Cc2cc(C(=O)N3CCN(c4ccc(C(=O)N(C)CC56CC7CC(CC(C7)C5)C6)nn4)CC3)cc(C(F)(F)F)c2)c1 [Compound B3A020-01, N-(1-Adamantylmethyl)-6-[4-[3-[2-(5-ethoxypyridin-3-yl)ethynyl]-5-(trifluoromethyl)benzoyl]piperazin-1-yl]-N-methylpyridazine-3-carboxamide]	–	–	–	–	ASMS ratio (%) n = 1 (AS-MS, mixture of 1200 compounds/well, Bcl-2 protein, replicate n = 1): 7.5%; ASMS ratio (%) n = 2 (AS-MS, mixture of 1200 compounds/well, Bcl-2 protein, replicate n = 2): −3.2%
CCOc1cncc(C#Cc2cc(C(=O)N3CCN(c4ccc(C(=O)NS(=O)(=O)C(C)(C)C)nn4)CC3)cc(C(F)(F)F)c2)c1 [Compound B2L020-01, N-tert-Butylsulfonyl-6-[4-[3-[2-(5-ethoxypyridin-3-yl)ethynyl]-5-(trifluoromethyl)benzoyl]piperazin-1-yl]pyridazine-3-carboxamide]	–	–	0.0%	0.0%	–
CCOc1cncc(C#Cc2ccccc2CN2CCN(c3ccc(C(=O)NS(C)(=O)=O)cc3)CC2)c1 [Compound B2I070-01, 4-[4-[[2-[2-(5-Ethoxypyridin-3-yl)ethynyl]phenyl]methyl]piperazin-1-yl]-N-methylsulfonylbenzamide]	–	–	0.0%	–	–
CCOc1cccc(-c2cc(CN3CCN(c4ccc(C(=O)NS(=O)(=O)c5ccc(NCCSc6ccccc6)c(C(F)(F)F)c5)cc4)CC3)cc(OC(F)(F)F)c2)c1 [Compound B2R063-01, 4-[4-[[3-(3-Ethoxyphenyl)-5-(trifluoromethoxy)phenyl]methyl]piperazin-1-yl]-N-[4-(2-phenylsulfanylethylamino)-3-(trifluoromethyl)phenyl]sulfonylbenzamide]	8.2%	4.6%	–	–	–
CCOc1cccc(C#Cc2ccccc2C(=O)N2CCN(c3ccc(C(=O)NS(=O)(=O)CCC(F)(F)F)nn3)CC2)c1 [Compound B2N007-01, 6-[4-[2-[2-(3-Ethoxyphenyl)ethynyl]benzoyl]piperazin-1-yl]-N-(3,3,3-trifluoropropylsulfonyl)pyridazine-3-carboxamide]	0.0%	0.0%	–	–	–
CCOc1cccc(-c2ccccc2CN2CCN(c3ccc(C(=O)NS(=O)(=O)C(C)(C)C)nn3)CC2)c1 [Compound B2L071-01, N-tert-Butylsulfonyl-6-[4-[2-(3-ethoxyphenyl)phenyl]methyl]piperazin-1-yllpyridazine-3-carboxamide]	–	–	0.0%	1.2%	–
CCOc1cccc(-c2cc(OC)c(CN3CCN(c4ccc(C(=O)NS(=O)(=O)C(C)(C)C)cc4)CC3)c(OC)c2)c1 [Compound B2L059-01, N-tert-Butylsulfonyl-4-[4-[[4-(3-ethoxyphenyl)-2,6-dimethoxyphenyl]methyl]piperazin-1-yl]benzamide]	–	–	0.0%	0.0%	–
CCOc1cncc(C#Cc2ccccc2CN2CCN(c3ccc(C(=O)NS(=O)(=O)C(C)(C)C)nn3)CC2)c1 [Compound B2L096-01]	0.0%	0.0%	–	–	–
CCOc1cncc(-c2ccc(CN3CCN(c4ccc(C(=O)NS(=O)(=O)c5ccc(NCCSc6ccccc6)c(C(F)(F)F)c5)cc4)CC3)cc2C)c1 [Compound B2R048-01]	9.2%	7.5%	–	–	–
CCOc1cncc(-c2ccccc2CN2CCN(c3ccc(C(=O)NS(C)(=O)=O)nn3)CC2)c1 [Compound B2I072-01, 6-[4-[[2-(5-Ethoxypyridin-3-yl)phenyl]methyl]piperazin-1-yl]-N-methylsulfonylpyridazine-3-carboxamide]	–	–	1.3%	0.8%	–
CCOc1cccc(-c2cc(CN3CCN(c4ccc(C(=O)NS(=O)(=O)c5ccc(NCCSc6ccccc6)c(C(F)(F)F)c5)nn4)CC3)cc(OC(C)C)c2)c1 [Compound B2R083-01, 6-[4-[[3-(3-Ethoxyphenyl)-5-propan-2-yloxyphenyl]methyl]piperazin-1-yl]-N-[4-(2-phenylsulfanylethylamino)-3-(trifluoromethyl)phenyl]sulfonylpyridazine-3-carboxamide]	31.9%	−11.1%	–	–	–
CCOc1cccc(-c2ccccc2CCC(=O)N2CCN(c3ccc(C(=O)NS(=O)(=O)c4ccc(NCCSc5ccccc5)c(C(F)(F)F)c4)cc3)CC2)c1 [Compound B2R033-01, 4-[4-[3-[2-(3-Ethoxyphenyl)phenyl]propanoyl]piperazin-1-yl]-N-[4-(2-phenylsulfanylethylamino)-3-(trifluoromethyl)phenyl]sulfonylbenzamide]	3.6%	−6.6%	–	–	–
CCOc1cncc(-c2cc(C(=O)N3CCN(c4ccc(C(=O)NS(=O)(=O)CCC(F)(F)F)nn4)CC3)cc(C(F)(F)F)c2)c1 [Compound B2N018-01, 6-[4-[3-(5-Ethoxypyridin-3-yl)-5-(trifluoromethyl)benzoyl]piperazin-1-yl]-N-(3,3,3-trifluoropropylsulfonyl)pyridazine-3-carboxamide]	0.0%	1.0%	–	–	–

More lines, main results first:

ASMS ratio (%) n = 1 [1]	ASMS ratio (%) n = 2 [2]	ASMS ratio (%) n = 2 [3]	ASMS ratio (%) n = 1 [4]	SMILES	further results
0.0%	1.4%	–	–	CCOc1cccc(-c2ccc(CN3CCN(c4ccc(C(=O)NS(=O)(=O)CCC(F)(F)F)cc4)CC3)c(OC)c2)c1 [Compound B2N053-01, 4-[4-[[4-(3-Ethoxyphenyl)-2-methoxyphenyl]methyl]piperazin-1-yl]-N-(3,3,3-trifluoropropylsulfonyl)benzamide]	–
0.1%	−1.3%	–	–	CCOc1cncc(-c2ccccc2CCC(=O)N2CCN(c3ccc(C(=O)NS(=O)(=O)c4ccc(NCCSc5ccccc5)c(C(F)(F)F)c4)cc3)CC2)c1 [Compound B2R034-01, 4-[4-[3-[2-(5-Ethoxypyridin-3-yl)phenyl]propanoyl]piperazin-1-yl]-N-[4-(2-phenylsulfanylethylamino)-3-(trifluoromethyl)phenyl]sulfonylbenzamide]	–
–	–	0.0%	0.0%	CCOc1cncc(C#Cc2ccccc2C(=O)N2CCN(c3ccc(C(=O)NS(=O)(=O)C(C)(C)C)cc3)CC2)c1 [Compound B2L030-01, N-tert-Butylsulfonyl-4-[4-[2-[2-(5-ethoxypyridin-3-yl)ethynyl]benzoyl]piperazin-1-yl]benzamide]	–
–	–	0.0%	0.0%	CCOc1cncc(-c2ccc(CN3CCN(c4ccc(C(=O)NS(C)(=O)=O)cc4)CC3)c(OC)c2)c1 [Compound B2I054-01, 4-[4-[[4-(5-Ethoxypyridin-3-yl)-2-methoxyphenyl]methyl]piperazin-1-yl]-N-methylsulfonylbenzamide]	–
–	–	1.0%	2.7%	CCOc1cncc(-c2ccc(CN3CCN(c4ccc(C(=O)NS(=O)(=O)C(C)(C)C)cc4)CC3)cc2F)c1 [Compound B2L052-01, N-tert-Butylsulfonyl-4-[4-[[4-(5-ethoxypyridin-3-yl)-3-fluorophenyl]methyl]piperazin-1-yl]benzamide]	–
−0.4%	−1.0%	–	–	CCOc1cncc(C#Cc2cncc(C(=O)N3CCN(c4ccc(C(=O)NS(=O)(=O)CCC(F)(F)F)cc4)CC3)c2)c1 [Compound B2N032-01, 4-[4-[5-[2-(5-Ethoxypyridin-3-yl)ethynyl]pyridine-3-carbonyl]piperazin-1-yl]-N-(3,3,3-trifluoropropylsulfonyl)benzamide]	–
0.0%	0.0%	–	–	CCOc1cccc(-c2ccc(C(C)N3CCN(c4ccc(C(=O)NS(=O)(=O)CCC(F)(F)F)cc4)CC3)c(F)c2)c1 (centres unmarked) [Compound B2N099-01, 4-[4-[1-[4-(3-Ethoxyphenyl)-2-fluorophenyl]ethyl]piperazin-1-yl]-N-(3,3,3-trifluoropropylsulfonyl)benzamide]	–
–	0.0%	–	–	CCOc1cccc(-c2csc(CN3CCN(c4ccc(C(=O)NS(=O)(=O)C(C)(C)C)nn4)CC3)c2)c1 [Compound B2L093-01]	–
